Consider 11 compounds from ChEMBL document CHEMBL1201862, “PubChem BioAssay data set” (2004).

Where “and” joins values, the source holds several entries; their conditions need not be identical. Identical values can stand only once.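 Compound exposure: 48 hours, 5 concentrations, 96-well plates. GI50 = concentration required for 50% inhibition of growth.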 Calls of active or inactive are those of the source. No stated cut-off is given here; in the data, active = GI50 up to about 1.1 µM and inactive = higher.

Some test systems named below: SN12C; DU-145; NCI-H23; OVCAR-3; A549; HOP-62; RPMI-8226; UACC-257; MCF7; NCI-H226; U-251; OVCAR-8; OVCAR-5; SR; SF-539; SK-MEL-28; HCT-116; IGROV-1; CCRF-CEM; BT-549.
Holding throughout (test): inhibition of tumour cell growth, NCI panel, 48 h

In the case of `CCCC/C=C1/CCC(CN(C)C)C1=O` (stereo not drawn), the GI50 with SN12C was 1.87 µM (inactive); in the experiment on DU-145, 15.6 µM (inactive); in the experiment on NCI-H23, 3.41 µM (inactive); with OVCAR-3, 1.94 µM (inactive); in the experiment with A549, 6.58 µM (inactive); in the experiment with HOP-62, 20 µM (inactive). In addition, the GI50 with RPMI-8226 was 0.0968 µM (active); with UACC-257, 2.17 µM (inactive); with MCF7 it was 0.525 µM (active); with NCI-H226, 11.1 µM (inactive); in the experiment with U-251, 1.97 µM (inactive); in the experiment with OVCAR-8, 1.83 µM (inactive). For the same compound, the GI50 in the experiment with OVCAR-5 was 6.01 µM (inactive); in the experiment with SR, 0.456 µM (active); with SF-539, 2.48 µM (inactive); with SK-MEL-28, 1.92 µM (inactive); in the experiment with HCT-116, 1.84 µM (inactive); with IGROV-1 it was 3.98 µM (inactive).

For the compound `CCS(=O)(=O)c1c2cc(OC)ccc2nc2ccc(OC)cc12`, the GI50 in the experiment on CCRF-CEM, in the experiment on SN12C, in the experiment on DU-145, in the experiment on NCI-H23, in the experiment on OVCAR-3 and in the experiment on A549 was > 100 µM (inactive) each time. The GI50 with HOP-62, in the experiment on UACC-257, with MCF7, with NCI-H226, with U-251 and with OVCAR-8 was > 100 µM (inactive) in each case. Besides, the GI50 with OVCAR-5 was > 100 µM (inactive); with SR it was > 100 µM (inactive); with SF-539, 26.5 µM (inactive); with SK-MEL-28, > 100 µM (inactive); with HCT-116, > 100 µM (inactive); in the experiment with IGROV-1, > 100 µM (inactive).

For `CC(=O)OCC1OC(n2c(C)c(C(C)=O)c(-c3ccco3)c(C#N)c2=S)C(OC(C)=O)C(OC(C)=O)C1OC(C)=O` (stereo not drawn), the GI50 in the experiment on CCRF-CEM was > 100 µM (inactive) and 53.2 µM (inactive); in the experiment on SN12C it was > 100 µM (inactive); in the experiment with DU-145, > 100 µM (inactive); in the experiment with NCI-H23 it was > 100 µM (inactive); with OVCAR-3, > 100 µM (inactive); with A549, > 100 µM (inactive). Moreover, the GI50 in the experiment on HOP-62, in the experiment on UACC-257, in the experiment with MCF7, in the experiment on NCI-H226, with U-251 and in the experiment with OVCAR-8 was > 100 µM (inactive) each time. Moreover, the GI50 in the experiment with OVCAR-5, in the experiment on SR, in the experiment with SF-539, with SK-MEL-28 and in the experiment with HCT-116 was > 100 µM (inactive) each time.

`Nc1c(Br)cc(-c2cc(Br)c(N)c(Br)c2)cc1Br`: the GI50 in the experiment on CCRF-CEM, in the experiment with SN12C, with DU-145, with NCI-H23, in the experiment on OVCAR-3 and in the experiment with A549 was > 100 µM (inactive) throughout. Moreover, the GI50 in the experiment with HOP-62 is 66.1 µM (inactive); in the experiment with RPMI-8226, > 100 µM (inactive); with UACC-257 it was > 100 µM (inactive); in the experiment on MCF7 it was > 100 µM (inactive); with NCI-H226, > 100 µM (inactive); in the experiment on OVCAR-8, > 100 µM (inactive). Besides, the GI50 in the experiment on OVCAR-5, in the experiment on SR, with SF-539, in the experiment with SK-MEL-28, with HCT-116 and with IGROV-1 was > 100 µM (inactive) throughout.

As for `O=C1/C(=C/c2ccc(Cl)cc2)N=C(c2ccccc2)N1C1Nc2cc3c(cc2S1)NC(N1C(=O)/C(=C/c2ccc(Cl)cc2)N=C1c1ccccc1)S3` (stereo not drawn), the GI50 in the experiment on CCRF-CEM was 11.5 µM (inactive); in the experiment with DU-145 it was 46.3 µM (inactive); in the experiment with NCI-H23, > 100 µM (inactive); in the experiment on OVCAR-3, 49.8 µM (inactive); with HOP-62, 90.2 µM (inactive); in the experiment with RPMI-8226 it was 23.8 µM (inactive). For the same compound, the GI50 was > 100 µM (inactive) in the experiment with UACC-257; 42.2 µM (inactive) with MCF7; > 100 µM (inactive) in the experiment on NCI-H226; 32.3 µM (inactive) in the experiment with U-251; 39.1 µM (inactive) in the experiment on OVCAR-8; > 100 µM (inactive) in the experiment on OVCAR-5. In addition, the GI50 is 6.18 µM (inactive) with SR; > 100 µM (inactive) with SF-539; > 100 µM (inactive) in the experiment with SK-MEL-28; 35.9 µM (inactive) in the experiment on HCT-116; 47.6 µM (inactive) with IGROV-1.

As for `COc1ccc(/C=C2/C(=O)N(/C=C3\C(=O)Oc4ccccc4C3=O)/C(=N/C(C)=O)N2C)cc1OC`, the GI50 with CCRF-CEM is > 100 µM (inactive); with SN12C, > 100 µM (inactive); in the experiment on DU-145, > 100 µM (inactive); with NCI-H23, > 100 µM (inactive); in the experiment on OVCAR-3, 0.143 µM (active); with A549 it was > 100 µM (inactive). Also, the GI50 in the experiment with HOP-62, in the experiment with RPMI-8226, with UACC-257, in the experiment on MCF7, in the experiment on NCI-H226 and in the experiment on U-251 was > 100 µM (inactive) throughout. In addition, the GI50 in the experiment with OVCAR-8, with OVCAR-5, in the experiment with SR, with SF-539, in the experiment on SK-MEL-28 and in the experiment on HCT-116 was > 100 µM (inactive) throughout. In addition, in the experiment on IGROV-1, the GI50 was > 100 µM (inactive).

As for `C/C(=C\COP(=O)(O)OP(=O)(O)O)CC/C=C(\C)CNc1c(F)c(F)c(F)c(F)c1F`, the GI50 was 0.126 µM (active) in the experiment on CCRF-CEM; > 56.1 µM (inactive) in the experiment with SN12C; > 67.6 µM (inactive) with DU-145; > 100 µM (inactive) in the experiment on NCI-H23; > 100 µM (inactive) in the experiment with OVCAR-3; > 48.6 µM (inactive) with A549. Moreover, the GI50 in the experiment with HOP-62 was > 100 µM (inactive); in the experiment with UACC-257, > 70.3 µM (inactive); with MCF7 it was > 100 µM (inactive); in the experiment on NCI-H226, 20.3 µM (inactive); with U-251, > 100 µM (inactive); in the experiment on OVCAR-8, > 64.3 µM (inactive). The GI50 in the experiment on OVCAR-5 is > 100 µM (inactive); in the experiment with SR it was 0.0695 µM (active); in the experiment with SF-539, 97.1 µM (inactive); in the experiment with SK-MEL-28 it was > 100 µM (inactive); in the experiment on HCT-116, > 25.5 µM (inactive); in the experiment with IGROV-1, > 86.3 µM (inactive).

Consider `c1cc2ccc3cc4ncccc4c4ccc(c1)c2c34`, for which the GI50 was 19.7 µM (inactive) with CCRF-CEM; 31.4 µM (inactive) in the experiment with SN12C; 57.4 µM (inactive) with DU-145; 27.5 µM (inactive) with NCI-H23; 82.2 µM (inactive) in the experiment on OVCAR-3; 9.31 µM (inactive) with A549. Further, the GI50 in the experiment on HOP-62 was 19.9 µM (inactive); in the experiment with RPMI-8226, 10.1 µM (inactive); in the experiment with UACC-257, 56.8 µM (inactive); in the experiment on MCF7 it was 0.338 µM (active); in the experiment on NCI-H226, 17.5 µM (inactive); with U-251, 17.9 µM (inactive). Further, the GI50 is 6.82 µM (inactive) with OVCAR-8; 84.7 µM (inactive) in the experiment with OVCAR-5; < 0.01 µM (active) in the experiment on SR; 20.9 µM (inactive) with SF-539; 43.1 µM (inactive) in the experiment with SK-MEL-28; 12 µM (inactive) in the experiment on HCT-116. Moreover, the GI50 in the experiment with IGROV-1 was 1.32 µM (inactive).

Take `C/C(O)=C/C(=O)c1[nH]c(C(=O)O)cc1C1CCN(Cc2ccccc2)C1=O` (stereo not drawn): the GI50 was 18.3 µM (inactive) with DU-145; 17.9 µM (inactive) with NCI-H23; 21.7 µM (inactive) in the experiment on OVCAR-3; 26.9 µM (inactive) in the experiment with A549; 15.8 µM (inactive) in the experiment with HOP-62; 20.7 µM (inactive) in the experiment with RPMI-8226. Moreover, the GI50 in the experiment with UACC-257 is 22.4 µM (inactive); in the experiment on MCF7, 22.1 µM (inactive); in the experiment with BT-549 it was 22.6 µM (inactive); in the experiment with U-251, 34.2 µM (inactive); with OVCAR-8 it was 19.1 µM (inactive); in the experiment with OVCAR-5, 25.2 µM (inactive). For the same compound, the figures for the GI50 in the experiment with SK-MEL-28, in the experiment with HCT-116 and in the experiment with IGROV-1 were 23.2 µM (inactive), 24.3 µM (inactive) and 25.3 µM (inactive), respectively.

For `CCOC(=O)c1ccc(-c2cc(C)[nH]n2)[nH]1`, the GI50 with CCRF-CEM, with SN12C, in the experiment with DU-145, in the experiment with NCI-H23, in the experiment on OVCAR-3 and in the experiment with A549 was > 100 µM (inactive) each time. Moreover, the GI50 in the experiment on HOP-62, in the experiment on RPMI-8226, with UACC-257, in the experiment with NCI-H226, in the experiment with BT-549 and in the experiment with U-251 was > 100 µM (inactive) throughout. The GI50 with OVCAR-8, with OVCAR-5, in the experiment with SF-539, in the experiment with SK-MEL-28 and with HCT-116 was > 100 µM (inactive) throughout.

Turning to `COc1cc2c(c(OC)c1OC)-c1ccc(SC)c(=O)cc1[C@@H](OC(C)=O)CC2`, the GI50 in the experiment with CCRF-CEM, with SN12C, in the experiment with DU-145, with NCI-H23, with OVCAR-3 and in the experiment with A549 was < 0.01 µM (active) throughout. The GI50 in the experiment on HOP-62, in the experiment on UACC-257, with MCF7, with NCI-H226, in the experiment on BT-549 and with U-251 was < 0.01 µM (active) throughout. For the same compound, the GI50 with OVCAR-8, with SF-539, in the experiment on SK-MEL-28, in the experiment on HCT-116 and in the experiment on IGROV-1 was < 0.01 µM (active) in each case.
